What was measured:
[1] = tested on: schedule-induced polydipsia (water intake); assay: Schedule-induced polydipsia in rats; type: in vivo, rat; details: male wistar rats, oral 60 min prior to testing; Citalopram 40 mg/kg, Lu 26-054 20 mg/kg
Excerpt: Schedule-induced Polydipsia Food deprived rats exposed to a procedure in which food is delivered intermittently will drink large amounts of water if given the opportunity to do so. This behavioural phenomenon is called schedule-induced polydipsia and can be considered as an excessive expression of a normal behaviour. Schedule-induced polydipsia is regarded as a model of obsessive-compulsive disorder (Woods et al. 1993). Male wistar rats (Møllegard) housed in pairs and kept on a food-restricted diet (80% of normal body weight) for 2 weeks before the start of testing and throughout the duration of testing. To induce polydipsia rats were placed in test chambers where a pellet dispenser automatically dispensed one 60 mg food pellet every 60 seconds. Water was available at all times in the test chamber. Rats were tested 4-5 times per week, after 3-4 weeks training 70% of the rats were drinking >10 ml per 30 min test session. Once the rats had attained a steady drinking level compounds could be tested. Citalopram (40 mg/kg) or Lu 26-054 (20 mg/kg) were administered orally 60 min prior to testing and at 10:00 on the non-test days. The water intake was presented as a percentage of the pre-dosing (baseline) level.

[2] = tested on: footshock-induced ultrasonic vocalisation; assay: Footshock-induced ultrasonic vocalisation test in adult rats; type: in vivo, rat; details: male Wistar rats, drug given 30 min before test, four 1.0 mA footshocks
Excerpt: The Footshock-induced Vocalisation Test in Adult Rats. The footshock-induced vocalisation test in adult rats (described in detail in Sánchez C., Effect of serotonergic drugs on footshock-induced ultrasonic vocalization in adult male rats. Behav. Pharmacol. 1993; 4:267-277) is a test for anxiolytic and anti-panic effects. Male rats (Wistar WU, Charles River, Germany), weighing 150-175 g at the beginning of the study were used. Briefly, test cages (22 cm×22 cm×22 cm) made of grey Perspex and equipped with a metal grid floor were used. Footshocks were delivered from a two pole shocker and a microphone sensitive to ultrasounds in the range of 20-30 kHz was placed in the centre of the lid of the test cage. The ultrasounds were sent from the microphone to a preamplifier and converted from AC signals to DC signals in a signal rectifier. The accumulated time, in which the voltage of the rectified signal was larger than the voltage of a previously determined threshold level, was recorded. Twenty-four hours before the first test session the animals were primed. A rat was placed in each test cage and received, immediately thereafter, four 1.0 mA inescapable footshocks each of a duration of 10 sec and with an intershock interval of 5 sec. The animals were left in the test cage for 6 min after the last shock. […] The total time spent on vocalisation was recorded. […]

[3] = tested on: mice black and white box behaviour; assay: Black and White Box Test in mice; type: in vivo, mouse; details: male mice, pretreatment time 30 min, test duration 5 min
Experimental: Black and White Box Test This is a test for anxiolytic effects. The test model is further described in Sánchez, C. (1995) Pharmacol. Toxicol. 77, 71-78. Male mice (Lundbeck strain, Charles River, Germany) weighing 30-35 g were housed in groups of 4 in macrolon cages type II under a reversed 12 h day/night cycle (lights off 7 p.m.). The mice were adapted to the reversed light/dark cycle for at least 3 weeks prior to testing. The room temperature (21±2° C.), relative humidity (55±5%), and air exchange (16 times per h) were automatically controlled. The animals had free access to commercial food pellets and water. The test box used was designed as described by Sánchez (1995) (supra). […] The lower row of photocells (2 cm above cage floor) detected horizontal locomotor activity (crossing, entries, and time in each compartment), whereas the upper row of photocells (5 cm above cage floor) detected rearing activity. The accumulated data for 1 min intervals were recorded from 4 test boxed simultaneously and stored in a Paradox data base. […] The test duration was 5 min and the number of rears and line crossings between squares in both the black and the white compartment, number of entries into the black compartment and time spent in the white compartment were assessed.

Structure (SMILES): CN(C)CCC[C@@]1(c2ccc(F)cc2)OCc2cc(C#N)ccc21 [escitalopram, (S)-1-[3-(dimethyl-amino)propyl]-1-(4-fluorophenyl)-1,3-dihydro-5-isobenzofurancarbonitrile]
- water intake (percentage of pre-dosing baseline level) [1]: significant reduction in water intake
- inhibition of vocalisation [2]: able to inhibit vocalisation completely
- effect in black and white box model [3]: prominent effects

Structure (SMILES): CN(C)CCCC1(c2ccc(F)cc2)OCc2cc(C#N)ccc21 (racemic) [citalopram, reference compound]
- water intake (percentage of pre-dosing baseline level) [1]: without effect
- maximum effect, inhibition of vocalisation [2]: 60-70%
